Experimental data: patent US20140242590A1, “FLT3 MUTATIONS ASSOCIATED WITH DRUG RESISTANCE IN AML PATIENTS HAVING ACTIVATING MUTATIONS IN FLT3” (THE REGENTS OF THE UNIVERSITY OF CALIFORNIA, priority 2011, published 2014)

Tests used:
FLT3-ITD mutant isoforms = experiment: Immunoblotting with anti-phospho-FLT3 / anti-FLT3 on Ba/F3 lysates (cell-based biochemical assay); conditions: five AC220-resistant FLT3-ITD substitutions; 90 minutes exposure
Procedure: Exponentially growing Ba/F3 cells stably expressing each mutant along with a WT FLT3-ITD control were plated in RPMI medium 1640+10% FCS supplemented with kinase inhibitor at the indicated concentration. After a 90-minute incubation, the cells were washed in phosphate buffered saline (PBS) and lysed in Cell Extraction Buffer (Invitrogen) supplemented with protease and phosphatase inhibitors. The lysate was clarified by centrifugation and quantitated by BCA assay (Thermo Scientific). Protein was subjected to sodium dodecylsulfate polyacrylamide electrophoresis and transferred to nitrocellulose membranes. Immunoblotting was performed using anti-phospho-FLT3 (Cell Signaling) and anti-FLT3 S18 antibody (Santa Cruz Biotechnology).

[1] = test system: Ba/F3 cells expressing FLT3-ITD mutant isoforms; experiment: Cell-viability assay of Ba/F3 populations stably expressing FLT3-ITD mutant isoforms; format: cell-based; conditions: 48 hours
Procedure: Stable Ba/F3 lines were generated by using retroviral spinfection with the appropriate mutated plasmid as outlined above, with the exception of the exclusion of polybrene. At 48 h post-infection, puromycin was added to infected cells at a concentration of 4 μg/mL. Cells were selected in the presence of puromycin for 7-10 days and subsequently IL-3 was washed twice from the cells with media and cells were selected in RPMI medium 1640+10% FCS in the absence of IL-3. Exponentially growing BaiF3 cells (5×10^4) were plated in each well of a 24-well dish with 1 ml of RPMI 1640+10% FCS containing the appropriate concentration of drug as indicated in triplicate. Cells were allowed to expand for 2 days and were counted by using a Vi-cell XR automated cell viability analyzer (Beckman Coulter). The mean number of viable cells at varying concentrations of drug was normalized to the median number of viable cells in the no-drug sample for each mutant. Error bars represent the standard deviation. Numerical IC50 values were generated using non-linear best-fit regression analysis using Prism 5 software (GraphPad).

[2] = test system: Ba/F3 cells expressing FLT3-ITD mutant isoforms; conditions: literature report (ref 18); cited from earlier work

CNC(=O)c1cc(Oc2ccc(NC(=O)Nc3ccc(Cl)c(C(F)(F)F)c3)cc2)ccn1 [sorafenib]
cross-resistance of AC220-resistant mutations in biochemical assay (phospho-FLT3) (FLT3-ITD mutant isoforms): substantial cross-resistance
resistance conferred by D835F mutation in vitro ([1]; FLT3-ITD/D835F vs FLT3-ITD): cross-resistance
cross-resistance of AC220-resistant mutations in cell-based growth assay ([1]; five AC220-resistant FLT3-ITD substitutions): substantial cross-resistance
sensitivity of FLT3-ITD/D835V in vitro, previously reported [2]: retain sensitivity
